Read-outs that look alike come from different tables or passages of the source.
Key:
[1] = test system: Human RSV-A (“Long” strain); experiment: RSV-A assay: inhibition of cytopathic effect in Hep-2 cells, ATPlite readout; type: cell-based, Human respiratory syncytial virus (HRSV); details: read-out: Human RSV-A (“Long” strain) EC50
Outline: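 Hep-2 cells (8,000/well) were infected with RSV-A Long at MOI 0.1 alongside duplicate 2-fold compound dilutions. After 5 days, cell viability was read by ATPlite luminescence to give EC50. CC50 came from a parallel plate without virus.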

[2] = Cytotoxicity on parallel plate without virus, ATPlite readout; type: cell-based; details: human, Hep-2 cells (no virus), Hep-2 cells without virus, 5-day incubation
Description: Following extensive parameter testing, the final assay is run as follows: Hep-2 cells are seeded into the inner 60 wells of a 96-well plate at 8,000 cells per well in a volume of 50 μL using Growth Media (DMEM without phenol red, 1% L-Glut, 1% Penn/Strep, 1% nonessential amino acids, 10% heat-inactivated FBS). 2-fold serial dilutions of control and test compounds are added to the wells in duplicate in a total volume of 25 μL. Viral stock is then added to the wells at a multiplicity of infection (MOI) of 0.1 in a volume of 25 μL, bringing the total volume of each well to 100 μL. The MOI is calculated using the PFU/mL, or TCID50 if unavailable. Each 96-well plate has a control column of 6 wells with cells and virus but no compound (negative control, max CPE), a column with cells but no compound or virus (positive control, minimum CPE), and a column with no cells or virus or compound (background plate/reagent control). The control wells with cells but no virus are given an additional 25 uL of growth media containing an equal quantity of sucrose as those wells receiving the viral stock in order to keep consistent in media and volume conditions. The outer wells of the plate are filled with 125 μL of moat media (DMEM, 1% Penn/Strep) to act as a thermal and evaporative moat around the test wells. Following a 5-day incubation period, the plates are read using ATPlite (50 uL added per well), which quantifies the amount of ATP (a measure of cell health) present in each well. Assay plates are read using the Envision luminometer. In parallel, cytotoxicity is examined on an additional 96-well plate treated in an identical manner, but substituting the 25 μL of viral stock for 25 μL of growth media. […] EC50 ranges are as follows: A<0.4 μM; B 0.4-0.8 μM; C>0.8 μM and CC50 ranges are as follows: A>50 μM; B 10-50 μM; C<10 μM.

[3] = human respiratory syncytial virus, HEp-2, 120 h
[4] = Hep-2 cells, MOI 0.1, 5-day incubation, ATPlite

SMILES | EC50 [1, 3] [nM] | CC50 at 5 days [2] [nM] | EC50 [1, 4] [nM]
O=C1Nc2ccccc2C(c2ccccc2)=NC1Nc1nnc(-c2cccc(C(F)(F)F)c2)o1 (stereo not drawn) [Example 29] | > 800 | > 50000 | 
O=C1Nc2ccccc2C(c2ccccc2)=NC1Nc1nnc(-c2ccc(OC(F)(F)F)cc2)o1 (stereo not drawn) [Example 30] | > 800 | > 50000 | 
NS(=O)(=O)c1ccc(-c2nnc(NC3N=C(c4ccccc4)c4ccccc4NC3=O)o2)cc1 (stereo not drawn) [Example 31] | 400 to 800 | > 50000 | 
N#Cc1cc(-c2nnc(NC3N=C(c4ccccc4)c4ccccc4NC3=O)o2)ccc1F (stereo not drawn) [Example 32] | 400 to 800 | > 50000 | 
N#Cc1ccc(-c2nnc(NC3N=C(c4ccccc4)c4ccccc4NC3=O)o2)cc1F (stereo not drawn) [Example 33] | > 800 | > 50000 | 
Cc1cc(-c2nnc(NC3N=C(c4ccccc4)c4ccccc4NC3=O)o2)ccc1C#N (stereo not drawn) [Example 34] | 400 to 800 | > 50000 | 
N#Cc1cccc(-c2nnc(NC3N=C(c4ccccc4)c4ccccc4NC3=O)o2)c1 (stereo not drawn) [Example 35] | > 800 | > 50000 | 
O=C1Nc2ccccc2C(c2ccccc2)=N[C@@H]1Nc1cc(-c2ccccc2)cnn1 [Example 462] | > 800 |  | 
O=C1Nc2ccccc2C(c2ccccc2)=NC1Nc1cc(N2CCOCC2)cnn1 (stereo not drawn) [Example 463] | > 800 |  | 
O=C1Nc2ccccc2C(c2ccccc2)=N[C@@H]1Nc1nnc(-c2ncc(C(F)(F)F)cc2N[C@@H]2CCOC2)o1 [Example 464] | < 400 |  | 
Cc1nsc(N2CCOCC2)c1-c1nnc(N[C@H]2N=C(c3ccccc3)c3ccccc3NC2=O)o1 [Example 465] | 400 to 800 |  | 
O=C1Nc2ccccc2C(c2ccccc2)=N[C@@H]1Nc1nnc(-c2ncc(C(F)(F)F)cc2N2CCOc3ccccc32)o1 [Example 468] | > 800 |  | 
O=C1Nc2ccccc2C(c2ccccc2)=N[C@@H]1Nc1nnc(-c2ncc(C(F)(F)F)cc2NC2COC2)o1 [Example 469] | < 400 |  | 
O=C1Nc2ccccc2C(c2ccccc2)=N[C@@H]1Nc1nnc(-c2ncc(C(F)(F)F)cc2N[C@H]2CCOC2)o1 [Example 470] | > 800 |  | 
O=C1Nc2ccccc2C(c2ccccc2)=N[C@@H]1Nc1nnc(-c2ccsc2N2CCOCC2)o1 [Example 471] | < 400 |  | 
COCCNc1sccc1-c1nnc(N[C@H]2N=C(c3ccccc3)c3ccccc3NC2=O)o1 [Example 472] | > 800 |  | 
COCCNc1sc(C(F)(F)F)nc1-c1nnc(N[C@H]2N=C(c3ccccc3)c3ccccc3NC2=O)o1 [Example 473] | < 400 |  | 
O=C1Nc2ccccc2C(c2ccccc2)=N[C@@H]1Nc1nnc(-c2nc(C(F)(F)F)sc2N[C@@H]2CCOC2)o1 [Example 474] | < 400 |  | 
O=C1Nc2ccccc2C(c2ccccc2)=N[C@@H]1Nc1nnc(-c2nc(C(F)(F)F)sc2NCC2COC2)o1 [Example 475] | 400 to 800 |  | 
O=C1Nc2ccccc2C(c2ccccc2)=N[C@@H]1Nc1nnc(-c2oc3cc(F)ccc3c2N2CCOCC2)o1 [Example 476] | 400 to 800 |  | 
O=C1Nc2ccccc2C(c2ccccc2)=N[C@@H]1Nc1nnc(-c2oc3cccc(F)c3c2N2CCOCC2)o1 [Example 477] | < 400 |  | 
CC1(c2nc(-c3nnc(N[C@H]4N=C(c5ccccc5)c5ccccc5NC4=O)o3)c(N3CCOCC3)s2)CCC1 [Example 478] | < 400 |  | 
COCCCc1sc(C)nc1-c1nnc(N[C@H]2N=C(c3ccccc3)c3ccccc3NC2=O)o1 [Example 479] | > 800 |  | 
COC[C@@H]1C[C@H]1c1cc(C(F)(F)F)cnc1-c1nnc(N[C@@H]2N=C(c3ccccc3)c3ccccc3NC2=O)o1 [Example 481] |  |  | > 800
COC[C@H]1C[C@@H]1c1cc(C(F)(F)F)cnc1-c1nnc(N[C@H]2N=C(c3ccccc3)c3ccccc3NC2=O)o1 [Example 482] |  |  | > 800
COC[C@H]1C[C@@H]1c1cc(C(F)(F)F)cnc1-c1nnc(N[C@@H]2N=C(c3ccccc3)c3ccccc3NC2=O)o1 [Example 483] |  |  | > 800
O=C1Nc2ccccc2C(c2ccccc2)=N[C@@H]1Nc1nnc(-c2cn(CC(F)(F)F)nc2N2CCOCC2)o1 [Example 488] |  |  | < 400
O=C1Nc2ccccc2C(c2ccccc2)=N[C@H]1Nc1nnc(-c2cn(CC(F)(F)F)nc2N2CCOCC2)o1 [Example 489] |  |  | > 800
O=C1Nc2ccccc2C(c2ccccc2)=N[C@@H]1Nc1nnc(-c2nc(C3(C(F)(F)F)CCC3)sc2N2CCOCC2)o1 [Example 490] | < 400 |  | 

From patent US11390631B1, “Benzodiazepine derivatives as RSV inhibitors” (priority 2015, dated 2022)
